Experimental data: patent US6514955B1, “Multi-faceted method to repress reproduction of latent viruses in humans and animals” (HIV Diagnostics, Inc., priority 1993, dated 2003)

Legend:
[1] = cited from earlier work
NADPH oxidase = NADPH oxidase (Homo sapiens, UniProt P04839); details: cited from earlier work
hybridoma macrophages = assay: Oxidant release in LPS or interferon activated hybridoma macrophages; type: cell-based
Text: PMA activates the oxidative burst. The oxidant detected is the same oxidant seen in Kupfer liver cells and lung macrophages: peroxynitrite.

Sequence of NADPH oxidase (P04839 2-570 limits assumed): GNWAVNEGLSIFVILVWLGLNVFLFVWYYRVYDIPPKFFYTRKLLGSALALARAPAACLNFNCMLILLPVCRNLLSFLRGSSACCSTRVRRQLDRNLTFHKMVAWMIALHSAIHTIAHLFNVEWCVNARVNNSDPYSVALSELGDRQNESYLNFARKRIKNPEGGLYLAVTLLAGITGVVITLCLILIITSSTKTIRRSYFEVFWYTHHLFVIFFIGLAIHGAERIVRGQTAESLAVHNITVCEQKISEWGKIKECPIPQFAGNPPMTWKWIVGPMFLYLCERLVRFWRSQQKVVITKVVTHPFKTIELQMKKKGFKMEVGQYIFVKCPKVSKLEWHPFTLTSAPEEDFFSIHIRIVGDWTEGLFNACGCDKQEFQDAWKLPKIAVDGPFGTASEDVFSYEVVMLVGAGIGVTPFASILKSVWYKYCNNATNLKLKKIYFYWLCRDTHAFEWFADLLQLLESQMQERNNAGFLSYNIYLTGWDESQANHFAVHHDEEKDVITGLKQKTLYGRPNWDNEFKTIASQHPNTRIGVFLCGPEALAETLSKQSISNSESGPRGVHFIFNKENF
Sequence of NADPH oxidase (P13498 2-195 partner limits assumed): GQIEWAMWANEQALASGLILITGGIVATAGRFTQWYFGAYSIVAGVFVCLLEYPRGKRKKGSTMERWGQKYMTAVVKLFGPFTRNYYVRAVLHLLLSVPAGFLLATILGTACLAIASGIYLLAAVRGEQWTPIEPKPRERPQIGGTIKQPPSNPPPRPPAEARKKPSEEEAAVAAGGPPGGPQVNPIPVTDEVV

For `O=C1NC(C(=O)O)CS1` (stereo not shown) [2-oxo-4-thiazolidene carboxylic acid], the “Oral doses administered without toxicity” value ([1]; in vivo, po) is listed as 0.15 to 0.45 mmol/kg.

In the case of `c1ccc2c(c1)[I+]c1ccccc1-2` [diphenylene iodonium], the “Concentration printed for NADPH oxidase inhibitor” value (NADPH oxidase) is listed as 15 nM.

In the case of `CCCCCCCCCCCCCC(=O)O[C@@H]1[C@@H](C)[C@@]2(O)[C@@H](C=C(CO)C[C@]3(O)C(=O)C(C)=C[C@@H]23)[C@@H]2C(C)(C)[C@]12OC(C)=O` [phorbol myristate acetate], the “Stimulation of oxidant (peroxynitrite) produced” value (hybridoma macrophages) is reported as “about 40 fold”.

In the case of `CC(=O)N[C@@H](CS)C(=O)O` [N-acetyl cysteine], the “Daily dose usable without toxic side effects” value ([1]; man, daily) is given as “Up to 40 mg per kilogram of body weight”.
